Test results from ChEMBL document CHEMBL1137454, “Natural bromophenols from the marine red alga Polysiphonia urceolata (Rhodomelaceae): structural elucidation and DPPH radical-scavenging activity” (Bioorg Med Chem, 2007).

Test: DPPH radical scavenging activity relative to control
Type: functional

Structure (SMILES) | IC50
Oc1cc(CCc2cc(O)c(O)c(Br)c2)cc(Br)c1O | 19.6 µM
CCCCOC(=O)Cc1cc(Br)c(O)c(Br)c1 | 16.1 µM
O=C(O)C(Cc1cc(O)c(O)c(Br)c1)c1cc(Br)c(O)c(Br)c1 (stereo not given) | 21.9 µM

Now from value to compound:

IC50 | Structure (SMILES)
9.67 µM | CC(=O)/C=C/c1cc(O)c(O)c(Br)c1
83.8 µM | Cc1cc(C(C)(C)C)c(O)c(C(C)(C)C)c1 [BUTYLATED HYDROXYTOLUENE]
